Data: patent publication US6555139B2, “Preparation of micron-size pharmaceutical particles by microfluidization” (Wockhardt Europe Limited, priority 1999, dated 2003)
Read-outs that look alike come from different tables or passages of the source.

Key:
[1] = Particle size distribution (PSD) of suspensions before/after microfluidization (Mastersizer); format: physicochemical; conditions: 5,000 psi, 3 passes
Excerpt: The Microfluidizer M-210 EH operates at higher pressures up to 35000 psi. The process stream enters the inlet reservoir. An air-powered intensifier pumping system accelerates the process stream, propelling into a processing zone called the interaction chamber. This chamber consists of microchannels, where the process stream separates into two. It changes direction and collides into a single stream again. […] Then product is accelerated to a high velocity and is subjected to shear, impact and cavitation. This causes particles and droplets to reduce in size as small as sub-micron depending upon the processing pressure and number of cycles applied. […] After completion of the microfluidization step, the sized particles in suspension pass through pipe 18 out of the system, with a heat exchanger 20 shown in a preferred system to enable on-line drying of the micro-suspension resulting from the microfluidization. The microfluidization process is most conveniently practiced with operating pressures between 2000 pounds per square inch (psi) and 20,000 psi to provide resulting particle sizes of the dimensions most appropriate for pharmaceutical dosing. The process will often progress with increasingly higher operating pressures in each subsequent pass, such as using from 2,000 to 6,000 psi in a first pass, 5,000 to 11,000 psi in a second pass, and from 9,000 to 20,000 psi in a third pass (if needed). Each pass will generally be higher than a previous pass, or operating pressures may remain constant or decrease, depending upon the specific results desired in the processing.

[2] = cited from earlier work
[3] = micronized drug + Klucel LF + micronized β-cyclodextrin + Cremophor RH-40 + water
[4] = micronized drug + Klucel LF + unmicronized β-cyclodextrin + Cremophor RH-40 + water

For `Cc1cnc(C(=O)NCCc2ccc(S(=O)(=O)NC(=O)NC3CCCCC3)cc2)cn1` [Glipizide, glipizide], the “PSD of Output Material After Processing, d (0.5)” value [1, 3] was 5.72 μm, the “PSD of Output Material After Processing, d (0.9)” value (“PSD … (0.9)” for short) [1, 3] was 12.06 μm and the “PSD of Output Material After Processing, d (0.5)” value [1, 4] was 3.84 μm. The “PSD … (0.9)” value [1, 4] was 7.52 μm.

In the case of `CCOC(=O)C1=C(C)NC(C)=C(C(=O)OC)C1c1cccc(Cl)c1Cl` (stereo not drawn) [Felodipine, felodipine], the “absorption from the colon” value [2] is listed as “impaired absorption from the colon”.

For `CCOC(=O)C1=C(C)NC(C)=C(C(=O)OC)C1c1cccc([N+](=O)[O-])c1` (stereo not drawn) [nitrendipine], the “absorption from the colon” value [2] is given as “impaired absorption from the colon”.

In the case of `CCc1cccc2c3c([nH]c12)C(CC)(CC(=O)O)OCC3` (stereo not drawn) [Etodolac, etodolac], the “PSD … (0.9)” value [1, 3] is reported as 12.15 μm, the solubility (pH 1) is reported as 0.001% and the solubility (pH 5) is reported as 0.01%.
